Source: patent publication US12144840B2, “Method for treating or preventing benign prostatic hyperplasia” (priority 2017, dated 2024)
“And” between values parts separate entries of the source, which are not always exact repeats. Identical values can stand only once. Like-named read-outs stand apart in the source and are kept apart here. Blank lines part the entries; values can stand above or below the molecule they belong to.

Legend:
[1] = test system: testosterone-induced benign prostatic hyperplasia; type: in vivo, male Wistar rats; conditions: BPH rats; for Ratio (b/a* 100): prostate weight/body weight
Method: (§1) After 6-week-old male Wistar rats (Samtako, Korea) were obtained and acclimated for one week, six animals constituted each test group when each animal weighed 340-350 g.
(§2) As for the test configuration, the animals were divided into groups without testicle removal and groups undergoing […] recovery after testicle removal, and each group was subcutaneously injected with 5 mg/kg testosterone to induce benign prostatic hyperplasia for weeks (BPH induced group). Test groups were constructed by oral administration of Aucklandiae Radix extracts and costunolide at different concentrations (mg/kg) once a day, seven times a week, for 8 weeks.
After the completion of the test, the rats of all the test groups were euthanized, and then prostate tissue and main organs were extracted, and weights and volumes thereof were measured using an electronic scale for animal weights and a caliper (mm^3) (Table 2).

[2] = type: in vivo, male Wistar rats
Method: as §1
as §2, with “weeks. Positive control groups were used by oral administration of finasteride, which has been used as a medicine for benign prostatic hyperplasia.” for “weeks.”
For analysis of biochemical markers in serum, blood was obtained through the abdominal vein from rats of all the groups at necropsy. The blood was coagulated for about 30 minutes, and then centrifuged for 5 minutes at 10,000 rpm to separate serum. After serum separation, a biochemistry analyzer (AU480, Beckman Coulter, USA) was used to check liver function (AST, ALP), lipoprotein (total cholesterol (T-CHO)), HDL cholesterol (HDL-C), LDL cholesterol (LDL-C)), and kidney function ([…]) levels (Table 3).

RAW 264.7 cells [3] = experiment: Nitric oxide (NO) change in LPS-activated macrophages (Griess reagent); type: cell-based; conditions: 200 ng LPS, various concentrations, 18 hours, vs LPS alone; dose-dependent (FIG. 1)
Method: (§3) RAW 264.7 cells, which were macrophages used in the present tests, were available from American Type Culture Collection (ATCC). These cells were cultured in CO2 incubator (Formascientific, Inc.) using DMEM containing 10% fetal bovine serum (FBS). The differentiation of cells was observed through microscopic observation, and then the cells were used in the tests.
To induce the activation of macrophages, RAW 264.7 cells were treated with 200 ng/ ? lipopolysaccharide (LPS) while simultaneously treated with various concentrations (μg/ ? ) of a 100% methanol extract of Aucklandiae Radix (expressed by MeOH 100%), a 30% ethanol extract of Aucklandiae Radix (expressed by EtOH 30%), and a 70% ethanol extract of Aucklandiae Radix (expressed by EtOH 70%), and costunolide, and then the cells were cultured in a 37° C., 5% CO2 incubator for 18 hours. After 18 hours, 100 ? of the supernatant was transferred to a new plate for each group, and 100 ? of a solution, in which Griess reagent A (2% sulfanilamide in 5% phosphoric acid) and Greiss reagent B (0.2% naphthylethylenediamine dihydrochloride) were mixed at a rate of 1:1, was added thereto. Thereafter, the absorbance was measured at 540 nm.

RAW 264.7 cells [4] = experiment: Inflammatory cytokine (IL-1β, IL-6, TNF-α) levels by ELISA in LPS-activated macrophages; type: cell-based; conditions: 200 ng LPS, various concentrations, 18 hours, vs cells treated with only LPS (FIG. 2)
Method: as §3
RAW 264.7 cells were treated with 200 ng/ ? LPS while simultaneously treated with various concentrations (μg/ ? ) of Aucklandiae Radix extracts (EtOH 30% and 70%) and costunolide, and then the cells were cultured in a 37° C., 5% CO2 incubator for 18 hours. After 18 hours, ELISA analysis kits (eBioScience 88-7013, 88-7064 USA, BD 555268 USA) were used to check the levels of the inflammatory cytokines IL-1β, IL-6, and TNF-α in the supernatant of each group.

prostate tissue = experiment: Prostate pathology biopsy (H&E) in BPH model rats; type: in vivo, male Wistar rats; conditions: oral once a day, 8 weeks
Method: as §1
as §2, with “weeks. Positive control groups were used by oral administration of finasteride, which has been used as a medicine for benign prostatic hyperplasia.” for “weeks.”
After the completion of the test, the prostate tissue extracted from each group was fixed with 10% neutral formalin and stored. The tissue of each group was processed into paraffin blocks, and slides for microscopic inspection of tissue were manufactured and stained with hematoxylin & eosin (H&E). The microscopic inspection of tissue was conducted through a microscope (Olympus, Tokyo, Japan) at a magnification of X200.

[5] = positive control group, oral, dose not given
[6] = oral 0.075 mg/kg once a day, 8 weeks

- Speen weight [1, 5]: 0.60 g and 0.70 g
Structure (SMILES): CC(C)(C)NC(=O)[C@H]1CC[C@H]2[C@@H]3CC[C@H]4NC(=O)C=C[C@]4(C)[C@H]3CC[C@]12C [Fina, finasteride]
- Body Weight (a) [1, 5]: 379 g and 415 g
- Prostate Weight (b) [1, 5]: 1.23 g and 1.42 g
- Prostate volume [1, 5]: 2,322 mm^3 and 4,255 mm^3
- Ratio (b/a* 100) [1, 5]: 0.29 and 0.34

Structure (SMILES): C=C1C(=O)O[C@@H]2/C=C(\C)CC/C=C(\C)CC[C@@H]12 [costunolide]
- serum liver function, lipoprotein and kidney function levels (hepatoxicity and kidney toxicity) ([2]; BPH rats, oral once a day, 8 weeks, all administered groups): no significant changes
- ALP ([2]; rat, in vivo, po, 0.075 mg/kg): 61.17 U/L
- AST ([2]; rat, in vivo, po, 0.075 mg/kg): 78.33 U/L
- CRE ([2]; rat, in vivo, po, 0.075 mg/kg): 0.27 mg/dL
- HDL ([2]; rat, in vivo, po, 0.075 mg/kg): 51.50 mg/dL
- LDL ([2]; rat, in vivo, po, 0.075 mg/kg): 13.17 mg/dL
- T-CHO ([2]; rat, in vivo, po, 0.075 mg/kg): 79.67 mg/dL
- amount of NO (RAW 264.7 cells [3]): significantly decreased
- secretion levels of the inflammatory cytokines (IL-1β, IL-6, TNF-α) (RAW 264.7 cells [4]): decreases
- prostate weights and volumes ([1]; costunolide administration groups, printed as 0.075 μg/, compared with finasteride administration groups (FIG. 3)): significant reduction effect
- Body Weight (a) [1, 6]: 433 g
- Liver weight [1, 6]: 10.72 g
- Prostate Weight (b) [1, 6]: 1.40 g
- Prostate volume [1, 6]: 4,126 mm^3
- Speen weight [1, 6]: 0.62 g
- Ratio (b/a* 100) [1, 6]: 0.32
- endothelial thicknesses of prostate tissue (H&E, X200) (prostate tissue; compared with the benign prostatic hyperplasia induced group (FIGS. 4 and 5)): significantly reduced
- alveolar glands of prostate tissue (H&E, X200) (prostate tissue; similar to the normal control group (FIGS. 4 and 5)): maintained in a round shape without atrophy
